Laboratory results published in article PMC5218480 (PLoS ONE, 2017).

System: MV-4-11 cells
Test: Gene expression microarray analysis (Affymetrix PrimeView) and GSEA
Type: cell-based, human
Design: RFU PODN (11730768_x_at) / Fold change /veh PODN (11730768_x_at) / RFU LINC00158 (11744669_a_at) / Fold change /veh LINC00158 (11744669_a_at) / RFU DUSP10 (11751237_a_at) / Fold change /veh DUSP10 (11751237_a_at) / RFU ID3 (11757404_x_at) / Fold change /veh ID3 (11757404_x_at) / RFU PLEKHG5 (11737974_s_at) / Fold change /veh PLEKHG5 (11737974_s_at) / RFU LRRC4B (11730491_at) / Fold change /veh LRRC4B (11730491_at) / RFU GIMAP4 (11747438_a_at) / Fold change /veh GIMAP4 (11747438_a_at) / RFU KRT8 (11758183_x_at) / Fold change /veh KRT8 (11758183_x_at) / RFU CNN1 (11734310_a_at) / Fold change /veh CNN1 (11734310_a_at) / RFU VPS37D (11726825_at) / Fold change /veh VPS37D (11726825_at) / RFU C10orf10 (11716522_x_at) / Fold change /veh C10orf10 (11716522_x_at) / RFU KIR2DL2 /// KIR2DL4 /// KIR2DL5A /// KIR2DL5B /// KIR2DS1 /// KIR2DS2 /// KIR2DS3 /// KIR2DS4 /// KIR3DL3 /// KIR3DL3 /// KIR3DS1 (11738374_at) / Fold change /veh KIR2DL2 /// KIR2DL4 /// KIR2DL5A /// KIR2DL5B /// KIR2DS1 /// KIR2DS2 /// KIR2DS3 /// KIR2DS4 /// KIR3DL3 /// KIR3DL3 /// KIR3DS1 (11738374_at) / RFU C1QL1 (11718748_at) / Fold change /veh C1QL1 (11718748_at) / RFU TMPRSS4 (11747572_a_at) / Fold change /veh TMPRSS4 (11747572_a_at) / RFU HAMP (11756126_x_at) / Fold change /veh HAMP (11756126_x_at) / RFU RNFT2 (11725882_a_at) / Fold change /veh RNFT2 (11725882_a_at) / RFU NR4A2 (11747474_a_at) / Fold change /veh NR4A2 (11747474_a_at) / RFU ABCC12 (11746883_a_at) / Fold change /veh ABCC12 (11746883_a_at) / RFU TMEM136 (11760407_x_at) / Fold change /veh TMEM136 (11760407_x_at) / RFU CLDN22 /// WWC2 (11732394_at) / Fold change /veh CLDN22 /// WWC2 (11732394_at) / RFU HLA-DPB1 (11760878_x_at) / Fold change /veh HLA-DPB1 (11760878_x_at) / RFU SPINT1 (11716480_a_at) / Fold change /veh SPINT1 (11716480_a_at) / RFU GAP43 (11754022_s_at) / Fold change /veh GAP43 (11754022_s_at) / RFU A4GNT (11735810_at) / Fold change /veh A4GNT (11735810_at) / RFU PRB3 (11715151_x_at) / Fold change /veh PRB3 (11715151_x_at) / RFU TUBB4B (11761932_at) / Fold change /veh TUBB4B (11761932_at) / RFU CAPN14 (11732068_a_at) / Fold change /veh CAPN14 (11732068_a_at) / RFU TMCC2 (11721928_a_at) / Fold change /veh TMCC2 (11721928_a_at) / RFU IRGQ (11745062_a_at) / Fold change /veh IRGQ (11745062_a_at) / RFU FAM174B (11720279_a_at) / Fold change /veh FAM174B (11720279_a_at) / RFU TMPRSS4 (11748680_a_at) / Fold change /veh TMPRSS4 (11748680_a_at) / RFU FAM212B (11763350_a_at) / Fold change /veh FAM212B (11763350_a_at) / RFU PLEKHG5 (11743358_a_at) / Fold change /veh PLEKHG5 (11743358_a_at) / RFU ZSCAN30 (11745921_a_at) / Fold change /veh ZSCAN30 (11745921_a_at) / RFU CMKLR1 (11741424_a_at) / Fold change /veh CMKLR1 (11741424_a_at) / RFU LOC101060620 /// MAPK8IP1 (11723275_at) / Fold change /veh LOC101060620 /// MAPK8IP1 (11723275_at) / RFU SPTSSB (11747773_x_at) / Fold change /veh SPTSSB (11747773_x_at) / RFU PRSS12 (11739890_at) / Fold change /veh PRSS12 (11739890_at) / RFU BIN1 (11741810_x_at) / Fold change /veh BIN1 (11741810_x_at) / RFU WNT11 (11732464_a_at) / Fold change /veh WNT11 (11732464_a_at) / RFU C10orf10 (11716521_a_at) / Fold change /veh C10orf10 (11716521_a_at) / RFU C5orf56 (11738089_at) / Fold change /veh C5orf56 (11738089_at) / RFU CYB561 (11721691_x_at) / Fold change /veh CYB561 (11721691_x_at) / RFU ANKRD19P (11752326_a_at) / Fold change /veh ANKRD19P (11752326_a_at) / RFU OR2T12 /// OR2T33 /// OR2T8 (11738714_s_at) / Fold change /veh OR2T12 /// OR2T33 /// OR2T8 (11738714_s_at) / RFU VCAN (11748164_a_at) / Fold change /veh VCAN (11748164_a_at) / RFU JSRP1 (11732532_at) / Fold change /veh JSRP1 (11732532_at) / RFU KRTAP10-11 (11738290_x_at) / Fold change /veh KRTAP10-11 (11738290_x_at) / RFU MYO3A (11730013_a_at) / Fold change /veh MYO3A (11730013_a_at) / RFU EBF3 (11725865_a_at) / Fold change /veh EBF3 (11725865_a_at) / RFU CAMK2N1 (11719241_x_at) / Fold change /veh CAMK2N1 (11719241_x_at) / RFU C5orf56 (11738088_a_at) / Fold change /veh C5orf56 (11738088_a_at) / RFU OLFML3 (11715873_a_at) / Fold change /veh OLFML3 (11715873_a_at) / RFU LOC100653217 /// NTM (11731650_a_at) / Fold change /veh LOC100653217 /// NTM (11731650_a_at) / RFU MAPK11 (11762145_a_at) / Fold change /veh MAPK11 (11762145_a_at) / RFU FIZ1 (11724087_x_at) / Fold change /veh FIZ1 (11724087_x_at) / RFU OASL (11726364_x_at) / Fold change /veh OASL (11726364_x_at) / RFU SOX15 (11748057_x_at) / Fold change /veh SOX15 (11748057_x_at) / RFU CD79A (11719716_a_at) / Fold change /veh CD79A (11719716_a_at) / RFU HIST1H1D (11736915_at) / Fold change /veh HIST1H1D (11736915_at) / RFU CASKIN2 (11723855_a_at) / Fold change /veh CASKIN2 (11723855_a_at) / RFU LOC730098 (11760151_x_at) / Fold change /veh LOC730098 (11760151_x_at) / RFU OR4N2 (11742367_at) / Fold change /veh OR4N2 (11742367_at) / RFU PRRT2 (11749266_a_at) / Fold change /veh PRRT2 (11749266_a_at) / RFU SNX32 (11753110_a_at) / Fold change /veh SNX32 (11753110_a_at) / RFU CDHR5 (11726645_a_at) / Fold change /veh CDHR5 (11726645_a_at) / RFU RCAN1 (11760418_a_at) / Fold change /veh RCAN1 (11760418_a_at) / RFU FAM167A (11723789_a_at) / Fold change /veh FAM167A (11723789_a_at) / RFU FAM26E (11764081_at) / Fold change /veh FAM26E (11764081_at) / RFU ISYNA1 (11749810_s_at) / Fold change /veh ISYNA1 (11749810_s_at) / RFU ACY1 (11761880_at) / Fold change /veh ACY1 (11761880_at) / RFU 11764098_at / Fold change /veh 11764098_at / RFU SAMD14 (11745864_x_at) / Fold change /veh SAMD14 (11745864_x_at) / RFU NPB (11741838_a_at) / Fold change /veh NPB (11741838_a_at) / RFU TMPRSS6 (11731388_a_at) / Fold change /veh TMPRSS6 (11731388_a_at) / RFU KRTAP10-2 (11738614_at) / Fold change /veh KRTAP10-2 (11738614_at) / RFU ARHGAP8 /// PRR5-ARHGAP8 (11727945_x_at) / Fold change /veh ARHGAP8 /// PRR5-ARHGAP8 (11727945_x_at) / RFU KRTAP5-7 /// NADSYN1 (11734609_at) / Fold change /veh KRTAP5-7 /// NADSYN1 (11734609_at) / RFU RASL12 (11751679_a_at) / Fold change /veh RASL12 (11751679_a_at) / RFU CDKN2B (11736163_a_at) / Fold change /veh CDKN2B (11736163_a_at) / RFU PRF1 (11729649_at) / Fold change /veh PRF1 (11729649_at) / RFU, ZNF638 /// ZNF638-IT1 / Fold change vs veh, ZNF638 /// ZNF638-IT1 / RFU, PANK3 / Fold change vs veh, PANK3 / RFU, SH3YL1 / Fold change vs veh, SH3YL1 / RFU, ZEB2 / Fold change vs veh, ZEB2 / RFU, NRIP1 / Fold change vs veh, NRIP1 / RFU, PTTG1IP / Fold change vs veh, PTTG1IP / RFU, CAPN2 / Fold change vs veh, CAPN2 / RFU, MED14 / Fold change vs veh, MED14 / RFU, SNORA58 / Fold change vs veh, SNORA58 / RFU, C1orf63 / Fold change vs veh, C1orf63 / RFU, LRRFIP1 / Fold change vs veh, LRRFIP1 / RFU, NDUFAF7 / Fold change vs veh, NDUFAF7 / RFU, SLC12A2 / Fold change vs veh, SLC12A2 / RFU, IBTK / Fold change vs veh, IBTK / RFU, ESF1 / Fold change vs veh, ESF1 / Fold change vs veh, TMEM50B / RFU, TAOK1 / Fold change vs veh, TAOK1 / RFU, ACBD3 / Fold change vs veh, ACBD3 / RFU, TMA16 / Fold change vs veh, TMA16 / RFU, RWDD3 / Fold change vs veh, RWDD3 / RFU, BCAT1 / Fold change vs veh, BCAT1 / RFU, EDEM3 / Fold change vs veh, EDEM3 / RFU, TMEM33 / Fold change vs veh, TMEM33 / RFU, WDR75 / Fold change vs veh, WDR75 / RFU, AHCTF1 / Fold change vs veh, AHCTF1 / RFU, TFRC / Fold change vs veh, TFRC / RFU, ZDHHC17 / Fold change vs veh, ZDHHC17 / RFU, NOM1 / Fold change vs veh, NOM1 / RFU, ARL8B / Fold change vs veh, ARL8B / RFU, ZBTB11 / Fold change vs veh, ZBTB11 / RFU, TAMM41 / Fold change vs veh, TAMM41 / RFU, KIAA1704 /// LOC100996395 / Fold change vs veh, KIAA1704 /// LOC100996395 / RFU, ING1 / Fold change vs veh, ING1 / RFU, TRMT61B / Fold change vs veh, TRMT61B / RFU, FUBP3 / Fold change vs veh, FUBP3 / RFU, TP53 / Fold change vs veh, TP53 / RFU, TNKS2 / Fold change vs veh, TNKS2 / RFU, ZFP14 / Fold change vs veh, ZFP14 / RFU, ACTR2 / Fold change vs veh, ACTR2 / RFU, PPP3R1 / Fold change vs veh, PPP3R1 / RFU, PIK3R1 / Fold change vs veh, PIK3R1 / RFU, HNRNPA1 / Fold change vs veh, HNRNPA1 / RFU, RNF170 / Fold change vs veh, RNF170 / RFU, ZNF28 / Fold change vs veh, ZNF28 / RFU, RNGTT / Fold change vs veh, RNGTT / RFU, OGT / Fold change vs veh, OGT / RFU, BRD1 / Fold change vs veh, BRD1 / RFU, MARS / Fold change vs veh, MARS / RFU, ZNF655 / Fold change vs veh, ZNF655 / RFU, FAHD1 / Fold change vs veh, FAHD1 / RFU, BDP1 / Fold change vs veh, BDP1 / RFU, LRRCC1 / Fold change vs veh, LRRCC1 / RFU, ARID1A / Fold change vs veh, ARID1A / RFU, ZNF146 / Fold change vs veh, ZNF146 / RFU, ZNF330 / Fold change vs veh, ZNF330 / RFU, GPN3 / Fold change vs veh, GPN3 / RFU, C9orf123 / Fold change vs veh, C9orf123 / RFU, N4BP2L2 / Fold change vs veh, N4BP2L2 / RFU, ARFIP1 / Fold change vs veh, ARFIP1 / RFU, FAM179B / Fold change vs veh, FAM179B / RFU, BCL10 / Fold change vs veh, BCL10 / RFU, UHRF1BP1L / Fold change vs veh, UHRF1BP1L / RFU, BET1 / Fold change vs veh, BET1 / RFU, CNOT2 / Fold change vs veh, CNOT2 / RFU, ZNF268 / Fold change vs veh, ZNF268 / Fold change vs veh, ZNF507 / RFU, DGCR2 / Fold change vs veh, DGCR2 / RFU, WDSUB1 / Fold change vs veh, WDSUB1 / Fold change vs veh, HSP90B1 /// MIR3652 / RFU, ADSS / Fold change vs veh, ADSS / RFU, GK / Fold change vs veh, GK / RFU, ZNF148 / Fold change vs veh, ZNF148 / RFU, TAF9 / Fold change vs veh, TAF9 / RFU, SLC1A5 / Fold change vs veh, SLC1A5 / RFU, SLMO2 / Fold change vs veh, SLMO2 / RFU, ABCC4 / Fold change vs veh, ABCC4 / RFU, LOC101060439 /// RAP1B / Fold change vs veh, LOC101060439 /// RAP1B / RFU, RFX7 / Fold change vs veh, RFX7 / RFU, GTPBP10 / Fold change vs veh, GTPBP10 / RFU, CNEP1R1 / Fold change vs veh, CNEP1R1 / RFU, BIVM-ERCC5 /// ERCC5 / Fold change vs veh, BIVM-ERCC5 /// ERCC5 / RFU, ILF3 / Fold change vs veh, ILF3 / RFU 11762660_at / Fold change /veh 11762660_at / RFU VCAN (11757783_s_at) / Fold change /veh VCAN (11757783_s_at) / RFU DDX43 (11728927_at) / Fold change /veh DDX43 (11728927_at) / RFU KRT8 (11758188_x_at) / Fold change /veh KRT8 (11758188_x_at) / RFU NKD1 (11759106_at) / Fold change /veh NKD1 (11759106_at) / RFU SRD5A1 (11742802_a_at) / Fold change /veh SRD5A1 (11742802_a_at) / RFU TPSAB1 /// TPSB2 (11721975_s_at) / Fold change /veh TPSAB1 /// TPSB2 (11721975_s_at) / RFU GSTM3 (11746129_a_at) / Fold change /veh GSTM3 (11746129_a_at) / RFU IL23R (11737362_x_at) / Fold change /veh IL23R (11737362_x_at) / RFU TMEM51 (11727254_a_at) / Fold change /veh TMEM51 (11727254_a_at) / RFU PIWIL2 (11732686_x_at) / Fold change /veh PIWIL2 (11732686_x_at) / RFU ORM1 (11744905_x_at) / Fold change /veh ORM1 (11744905_x_at) / RFU CCDC152 (11743942_at) / Fold change /veh CCDC152 (11743942_at) / RFU ECM1 (11717891_a_at) / Fold change /veh ECM1 (11717891_a_at) / RFU IL23R (11748794_a_at) / Fold change /veh IL23R (11748794_a_at) / RFU TNFAIP8L3 (11732012_x_at) / Fold change /veh TNFAIP8L3 (11732012_x_at) / RFU MBOAT4 (11741988_at) / Fold change /veh MBOAT4 (11741988_at) / RFU 11764193_at / Fold change /veh 11764193_at / RFU TMEM53 (11763286_at) / Fold change /veh TMEM53 (11763286_at) / RFU MAGEB2 (11727129_at) / Fold change /veh MAGEB2 (11727129_at) / RFU TMEM200A (11744735_a_at) / Fold change /veh TMEM200A (11744735_a_at) / RFU CCDC152 (11751479_a_at) / Fold change /veh CCDC152 (11751479_a_at) / RFU FAM211A (11726209_a_at) / Fold change /veh FAM211A (11726209_a_at) / RFU RGS16 (11746705_a_at) / Fold change /veh RGS16 (11746705_a_at) / RFU VCAN (11755009_s_at) / Fold change /veh VCAN (11755009_s_at) / RFU RHOB (11743442_s_at) / Fold change /veh RHOB (11743442_s_at) / RFU RGS16 (11720943_a_at) / Fold change /veh RGS16 (11720943_a_at) / RFU RGS16 (11720944_at) / Fold change /veh RGS16 (11720944_at) / RFU, VPS4B / Fold change vs veh, VPS4B / RFU, CREB1 / Fold change vs veh, CREB1 / RFU, DNAJC13 / Fold change vs veh, DNAJC13 / RFU, GNAQ / Fold change vs veh, GNAQ / RFU, CDK5R1 / Fold change vs veh, CDK5R1 / RFU, ZRANB3 / Fold change vs veh, ZRANB3 / RFU, CUL4A / Fold change vs veh, CUL4A / RFU, CCNY / Fold change vs veh, CCNY / RFU, UFL1 / Fold change vs veh, UFL1 / RFU, COG3 / Fold change vs veh, COG3 / RFU, DIAPH2 / Fold change vs veh, DIAPH2 / RFU, SKA2 / Fold change vs veh, SKA2 / RFU, AFF3 / Fold change vs veh, AFF3 / RFU, LMF1 / Fold change vs veh, LMF1 / RFU, IPO11 / Fold change vs veh, IPO11 / RFU, DFFB / Fold change vs veh, DFFB / RFU, FOXP1 / Fold change vs veh, FOXP1 / RFU, CARD8 / Fold change vs veh, CARD8 / RFU, STRN3 / Fold change vs veh, STRN3 / RFU, ADK / Fold change vs veh, ADK / RFU, RASSF2 / Fold change vs veh, RASSF2 / RFU, WIPF1 / Fold change vs veh, WIPF1 / RFU, LARP1B / Fold change vs veh, LARP1B / RFU, RASA1 / Fold change vs veh, RASA1 / RFU, RB1 / Fold change vs veh, RB1 / RFU, PPFIA1 / Fold change vs veh, PPFIA1 / RFU, MAT2A / Fold change vs veh, MAT2A / RFU, CCT5 / Fold change vs veh, CCT5 / RFU, WDR92 / Fold change vs veh, WDR92 / RFU, CUX1 / Fold change vs veh, CUX1 / RFU, TTC7A / Fold change vs veh, TTC7A / RFU, TMEM135 / Fold change vs veh, TMEM135 / RFU, DEPTOR / Fold change vs veh, DEPTOR / RFU, CPM / Fold change vs veh, CPM / RFU, DNAJB6 / Fold change vs veh, DNAJB6 / RFU, CACNA2D3 / Fold change vs veh, CACNA2D3 / RFU, DTX4 / Fold change vs veh, DTX4 / RFU, TFCP2 / Fold change vs veh, TFCP2 / RFU, GMCL1 /// GMCL1P1 / Fold change vs veh, GMCL1 /// GMCL1P1 / RFU, AEBP2 / Fold change vs veh, AEBP2 / RFU, SNHG1 /// SNORD22 /// SNORD25 /// SNORD26 /// SNORD27 /// SNORD28 /// SNORD29 /// SNORD31 / Fold change vs veh, SNHG1 /// SNORD22 /// SNORD25 /// SNORD26 /// SNORD27 /// SNORD28 /// SNORD29 /// SNORD31 / Fold change (Aza/veh), C12orf56 (ProbeSet 11735607_a_at) / Fold change (ACY-1035/veh), C12orf56 (ProbeSet 11735607_a_at) / Fold change (Aza/veh), FGFR1OP (ProbeSet 11751329_s_at) / Fold change (ACY-1035/veh), FGFR1OP (ProbeSet 11751329_s_at) / Fold change (Aza/veh), VPS36 (ProbeSet 11739960_a_at) / Fold change (ACY-1035/veh), VPS36 (ProbeSet 11739960_a_at) / RFU SYPL1 (11715823_x_at) / Fold change /veh SYPL1 (11715823_x_at) / RFU IGFBP7 (11715501_s_at) / Fold change /veh IGFBP7 (11715501_s_at) / RFU REEP3 (11722064_at) / Fold change /veh REEP3 (11722064_at) / RFU IGLL1 (11728026_x_at) / Fold change /veh IGLL1 (11728026_x_at): dose or concentration left out as unconfirmed
Details: MV-4-11 cells, 48 hours

Nc1ccc(-c2cccs2)cc1NC(=O)c1ccc2c(c1)cc(C1CC1)n2CCN1CCOCC1 [ACY-1035]
Fold change /veh RHOB (11743442_s_at): 1.20
